Data as given in ChEMBL document CHEMBL2073857, “Increased sensitivity to vincristine of MDR cells by the leukotriene D4 receptor antagonist, ONO-1078” (Cancer Lett, 1998).

Target: Multidrug resistance-associated protein 1 (MRP1) (Homo sapiens, UniProt P33527)
Assay: TP_TRANSPORTER: inhibition of LTC4 uptake (LTC4: 0.00134 uM, ONO-1078: 100 uM) in membrane vesicles from CV60 cells
Assay type: functional, cell membranes, Membrane vesicle
Parameters: scale not given: the % may be the effect or the level left
Conditions: probe LTC4 (0.00134 uM), read-out: Activity

Sequence of Multidrug resistance-associated protein 1 (MRP1) (P33527 whole entry): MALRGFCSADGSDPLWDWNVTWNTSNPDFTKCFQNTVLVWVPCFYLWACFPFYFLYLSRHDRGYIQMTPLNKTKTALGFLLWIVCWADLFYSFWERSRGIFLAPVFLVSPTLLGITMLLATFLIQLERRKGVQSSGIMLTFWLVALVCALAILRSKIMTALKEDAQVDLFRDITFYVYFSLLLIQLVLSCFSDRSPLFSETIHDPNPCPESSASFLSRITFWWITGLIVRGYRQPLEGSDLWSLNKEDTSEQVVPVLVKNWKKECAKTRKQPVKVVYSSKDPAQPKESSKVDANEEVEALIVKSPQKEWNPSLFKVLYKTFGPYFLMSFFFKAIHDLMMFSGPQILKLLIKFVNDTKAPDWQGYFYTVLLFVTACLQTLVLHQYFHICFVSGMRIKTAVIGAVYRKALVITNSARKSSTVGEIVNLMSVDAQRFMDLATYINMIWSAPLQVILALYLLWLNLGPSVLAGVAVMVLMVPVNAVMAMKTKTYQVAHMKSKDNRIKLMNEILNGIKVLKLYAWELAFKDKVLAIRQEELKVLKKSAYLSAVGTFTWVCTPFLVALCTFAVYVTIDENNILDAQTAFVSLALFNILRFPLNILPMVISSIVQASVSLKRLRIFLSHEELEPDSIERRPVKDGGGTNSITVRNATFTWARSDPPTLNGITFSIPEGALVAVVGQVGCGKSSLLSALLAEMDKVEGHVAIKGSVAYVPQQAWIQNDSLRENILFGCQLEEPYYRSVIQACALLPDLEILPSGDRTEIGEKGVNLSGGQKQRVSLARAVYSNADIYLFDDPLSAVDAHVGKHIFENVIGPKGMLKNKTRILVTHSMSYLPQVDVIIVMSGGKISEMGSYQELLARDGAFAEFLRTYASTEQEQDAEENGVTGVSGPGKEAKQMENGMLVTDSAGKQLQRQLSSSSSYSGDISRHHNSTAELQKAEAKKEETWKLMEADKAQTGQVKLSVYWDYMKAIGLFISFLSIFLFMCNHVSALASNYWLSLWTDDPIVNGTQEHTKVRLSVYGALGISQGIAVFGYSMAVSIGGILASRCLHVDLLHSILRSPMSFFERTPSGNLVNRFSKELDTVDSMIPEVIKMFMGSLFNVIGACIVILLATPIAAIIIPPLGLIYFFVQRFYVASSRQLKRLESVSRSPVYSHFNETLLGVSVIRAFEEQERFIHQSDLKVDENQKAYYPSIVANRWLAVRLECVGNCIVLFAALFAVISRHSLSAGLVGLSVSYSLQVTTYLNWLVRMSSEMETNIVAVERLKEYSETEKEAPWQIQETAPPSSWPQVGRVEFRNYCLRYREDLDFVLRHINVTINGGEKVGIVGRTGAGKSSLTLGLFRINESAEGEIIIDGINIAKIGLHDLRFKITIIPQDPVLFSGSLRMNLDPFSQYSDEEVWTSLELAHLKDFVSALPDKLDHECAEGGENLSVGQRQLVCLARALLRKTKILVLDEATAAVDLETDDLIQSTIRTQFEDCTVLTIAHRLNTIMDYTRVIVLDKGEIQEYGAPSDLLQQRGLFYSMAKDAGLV

Work on O=C(Nc1cccc2c(=O)cc(-c3nnn[nH]3)oc12)c1ccc(OCCCCc2ccccc2)cc1 [PRANLUKAST] yielded an activity at 100 µM of 55%.
